Where two headings read alike, the source gives them in different places.

For 39 compounds, Emax and EC50 results are on record in US20260097037A1, “FUSED RING COMPOUND HAVING GLP-1 RECEPTOR AGONIST EFFECT” (Shionogi & Co., Ltd., priority 2022, published 2026).

The target of the test is T1, Human GLP-1 receptor stably expressing cells (hGLP-1R/CHO-K1 cells) (Homo sapiens, UniProt P43220).
T1 construct: expressed in transfected cells
As to the kind of experiment: Measurement of GLP-1 receptor agonist activity (cAMP assay). To be noted: for Emax: cAMP with 2 nM human GLP-1 (7-36) = 100%, DMSO only = 0%; for EC50: increase in cAMP concentration in hGLP-1R/CHO-K1 cells, 37° C. 1 hour. The test is classed as cell-based. Here is the method: Test Example 1: Measurement of GLP-1 Receptor Agonist Activity
Human GLP-1 receptor stably expressing cells (hGLP-1R/CHO-K1 cells) are cultured in an a-MEM medium (Sigma) containing 10% FBS (Hyclone), 2% GlutaMAX (Gibco), 1% G418 (Nacalai Tesque), and 1% Penicillin-Streptomycin Mixed Solution (Sigma) at 37° C. under 5% CO2 conditions, and recovered by treating a 10 fold diluted 5.0 g/1-trypsin/5.3 mmol/1-EDTA solution (Nacalai Tesque) and cryopreserved.
A DMSO solution containing the compound of the present invention or human GLP-1 (7-36) (Phoenix Pharmaceuticals) is dispensed into a 384-well microplate (Greiner) at 62.5 nL/well, and in addition, 400 μM Forskolin (Nacalai Tesque) is dispensed therein at 7.5 nL/well. Subsequently, the frozen GLP-1 R/CHO-K1 cells are thawed in a thermostatic bath at 37° C., suspended in HBSS buffer (GIBCO) containing 0.1% BSA (Sigma), 20 mM HEPES, 0.1 mM IBMX (Sigma), and 0.2 mM RO20-1724 (Calbiochem) at 2×10^4 cells/mL, and the cell suspension is added at 6 μL/well. The solution was incubated at 37° C. for 1 hour and intracellular cAMP concentration is measured using cAMP Gs dynamic kit (Cisbio) according to the protocol attached to the product. Specifically, a cAMP-d2/Anti-cAMP-Cryptate (1/1) mixture solution is added in a total amount of 6 μL/well, and is incubated at room temperature for 1 hour, and then, time-resolved fluorescence is measured using PHERAstar (BMG Labtech).
Assuming that the cAMP concentration when human GLP-1 (7-36) is dispensed to a final concentration of 2 nM is 100% and the cAMP concentration when only DMSO is dispensed is 0%, the 50% effective concentration (EC50) and the maximum effect (Emax) of the compound of the present invention are calculated using an increase in the cAMP concentration as an index, using TIBCO Spotfire (TIBCO Software). The dilution concentration or the dilution solvent are changed as necessary.
The compounds of the present invention were tested essentially as described above.
(In general: cAMP levels reflect the balance of adenylyl cyclase and phosphodiesterase activity.)

[1] abbreviates: CHO-K1, maximum effect, read-out: Emax.

T1 sequence (P43220 24-463): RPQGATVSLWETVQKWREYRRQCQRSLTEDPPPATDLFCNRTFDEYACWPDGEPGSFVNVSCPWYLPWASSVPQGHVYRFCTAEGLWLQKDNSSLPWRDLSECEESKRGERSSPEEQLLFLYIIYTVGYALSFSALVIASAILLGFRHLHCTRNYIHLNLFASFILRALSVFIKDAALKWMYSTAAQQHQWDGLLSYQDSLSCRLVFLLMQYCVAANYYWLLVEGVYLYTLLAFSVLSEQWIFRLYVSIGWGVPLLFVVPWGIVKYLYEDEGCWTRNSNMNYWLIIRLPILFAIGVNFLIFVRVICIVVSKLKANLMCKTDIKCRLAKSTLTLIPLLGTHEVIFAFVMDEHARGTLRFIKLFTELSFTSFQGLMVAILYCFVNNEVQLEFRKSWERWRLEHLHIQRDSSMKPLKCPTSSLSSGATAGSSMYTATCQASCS

As for `C[C@H]1c2c(cc(C(F)(F)F)c3c2OC(C)(c2ccc(Cl)cc2F)O3)CCN1Cc1nc2ccc(C(=O)O)cc2n1C[C@@H]1CCO1` (mixture of isomers) [Compound I-015], the response was half-maximal at 2.33 nM (EC50). Besides, the Emax – broadly, the greatest response seen or fitted, relative to the assay's reference – under setting [1] came to 93.3%.
In the same order, the values of `O=C(O)c1ccc2nc(Cc3ccc4nc(C(F)(F)F)c(OCc5ccc(Cl)cc5F)nc4c3F)n(C[C@@H]3CCO3)c2c1F` [Compound I-001] are 0.538 nM and 100%.
In the same order, the values of `Cc1cc2c(nc1OCc1ccc(Cl)cc1F)[C@H](C)N(Cc1nc3ccc(C(=O)O)cc3n1C[C@@H]1CCO1)CC2` [Compound I-002] are 0.168 nM and 109%.
In the same order, the values of `C[C@H]1c2cc(OCc3ccc(Cl)cn3)c(C(F)F)cc2CCN1Cc1nc2ccc(C(=O)O)cc2n1C[C@@H]1CCO1` [Compound I-003] are 3.6 nM and 102%.
On to `C[C@H]1c2cc(OCc3ccc(Cl)cc3)c(C(F)F)cc2CCN1Cc1nc2ccc(C(=O)O)cc2n1C[C@@H]1CCO1` [Compound I-004], for which the EC50 – broadly, the concentration needed to bring the measured effect to its halfway point – worked out at 2.88 nM. The Emax under setting [1] is 105%.
`Cc1ccc(COc2cc3c(cc2C(F)F)CCN(Cc2nc4ccc(C(=O)O)cc4n2C[C@@H]2CCO2)[C@H]3C)cc1` [Compound I-005] gave an EC50 of 3.39 nM. Further, the Emax under setting [1] turned out to be 111%.
On to `COc1cc(Cl)ccc1COc1cc2c(cc1C(F)F)CCN(Cc1nc3ccc(C(=O)O)cc3n1C[C@@H]1CCO1)[C@H]2C` [Compound I-006], for which the EC50 was determined as 0.308 nM. Moreover, the Emax under setting [1] came to 130%.
In the same order, the values of `C[C@H]1c2cc(OCc3ccccc3Cl)c(C(F)F)cc2CCN1Cc1nc2ccc(C(=O)O)cc2n1C[C@@H]1CCO1` [Compound I-007] are 7.91 nM and 88%.
Taken in the same sequence, the figures for `C[C@H]1c2cc(OCc3ccc(F)cc3F)c(C(F)F)cc2CCN1Cc1nc2ccc(C(=O)O)cc2n1C[C@@H]1CCO1` [Compound I-008] were 3.89 nM and 107%.
Taken in the same sequence, the figures for `C[C@H]1c2cc(OCc3ccc(Cl)cc3Cl)c(C(F)F)cc2CCN1Cc1nc2ccc(C(=O)O)cc2n1C[C@@H]1CCO1` [Compound I-009] were 0.969 nM and 122%.
`C[C@H]1c2cc(OCc3cc(F)c(Cl)cc3F)c(C(F)F)cc2CCN1Cc1nc2ccc(C(=O)O)cc2n1C[C@@H]1CCO1` [Compound I-010] came in with an EC50 of 1.99 nM. Moreover, under setting [1], the Emax came out at 117%.
In the same order, the values of `C[C@H]1c2cc(OCc3ccc(F)cc3)c(C(F)F)cc2CCN1Cc1nc2ccc(C(=O)O)cc2n1C[C@@H]1CCO1` [Compound I-011] are 16.1 nM and 102%.
Taken in the same sequence, the figures for `C[C@H]1c2cc(OCc3c(F)cc(Cl)cc3F)c(C(F)F)cc2CCN1Cc1nc2ccc(C(=O)O)cc2n1C[C@@H]1CCO1` [Compound I-012] were 1.25 nM and 108%.
Consider `C[C@H]1c2cc(OCc3c(F)cc(F)cc3F)c(C(F)F)cc2CCN1Cc1nc2ccc(C(=O)O)cc2n1C[C@@H]1CCO1` [Compound I-013], for which the midpoint of the response, the EC50, lay at 4.21 nM. Moreover, the Emax under setting [1] is 114%.
In the same order, the values of `C[C@H]1c2nc(OCc3ccc(Cl)c4ccoc34)c(C(F)(F)F)cc2CCN1Cc1nc2ccc(C(=O)O)cc2n1C[C@@H]1CCO1` [Compound I-014] are 0.171 nM and 128%.
As for `C[C@H]1c2nc(OCc3ccc(Cl)cc3)c(Cl)cc2CCN1Cc1nc2ccc(C(=O)O)cc2n1C[C@@H]1CCO1` [Compound I-017], it took 0.17 nM to reach a half-maximal effect (EC50). Under setting [1], the Emax was determined as 136%.
Compound `Cc1ccc(COc2nc3c(cc2Cl)CCN(Cc2nc4ccc(C(=O)O)cc4n2C[C@@H]2CCO2)[C@H]3C)cc1` [Compound I-018] returned an EC50 of 0.348 nM. Also, for the setting “maximum effect”, the Emax was found to be 133%.
The compound `C[C@H]1c2nc(OCc3ccc(F)cc3F)c(Cl)cc2CCN1Cc1nc2ccc(C(=O)O)cc2n1C[C@@H]1CCO1` [Compound I-019] displayed an EC50 of 0.176 nM. For the same compound, under setting [1], the Emax is 124%.
In the same order, the values of `C[C@H]1c2nc(OCc3ccc(Cl)cc3Cl)c(Cl)cc2CCN1Cc1nc2ccc(C(=O)O)cc2n1C[C@@H]1CCO1` [Compound I-020] are 0.0972 nM and 135%.
In the same order, the values of `C[C@H]1c2nc(OCc3cc(F)c(Cl)cc3F)c(Cl)cc2CCN1Cc1nc2ccc(C(=O)O)cc2n1C[C@@H]1CCO1` [Compound I-021] are 0.0833 nM and 112%.
Turning to `C[C@H]1c2nc(OCc3ccc(C#N)cc3F)c(Cl)cc2CCN1Cc1nc2ccc(C(=O)O)cc2n1C[C@@H]1CCO1` [Compound I-022], the EC50 was found to be 0.125 nM. Further, the Emax under setting [1] is 112%.
In turn, `C[C@H]1c2nc(OCc3ccc(F)cc3)c(Cl)cc2CCN1Cc1nc2ccc(C(=O)O)cc2n1C[C@@H]1CCO1` [Compound I-023] yielded an EC50 of 0.443 nM. Besides, the Emax under setting [1] worked out at 130%.
`C[C@H]1c2nc(OCc3c(F)cc(Cl)cc3F)c(Cl)cc2CCN1Cc1nc2ccc(C(=O)O)cc2n1C[C@@H]1CCO1` [Compound I-024]: a half-maximal response (EC50) required 0.117 nM. The maximal effect (Emax) under setting [1] was found to be 124%.
In the same order, the values of `C[C@H]1c2nc(OCc3c(F)cc(F)cc3F)c(Cl)cc2CCN1Cc1nc2ccc(C(=O)O)cc2n1C[C@@H]1CCO1` [Compound I-025] are 0.307 nM and 113%.
On to `C[C@H]1c2c(cc(C(F)(F)F)c3c2O[C@](C)(c2ccc(Cl)cn2)O3)CCN1Cc1nc2ccc(C(=O)O)cc2n1C[C@@H]1CCO1` [Compound I-026], for which the EC50 worked out at 4210 nM. Besides, under setting [1], the Emax turned out to be 53.3%.
Taken in the same sequence, the figures for `C[C@H]1c2c(cc(C(F)(F)F)c3c2O[C@@](C)(c2ccc(Cl)cn2)O3)CCN1Cc1nc2ccc(C(=O)O)cc2n1C[C@@H]1CCO1` [Compound I-027] were 0.701 nM and 119%.
Regarding `Cc1ccc(COc2nc3c(cc2Cl)CCN(Cc2nc4ccc(C(=O)O)cc4n2C[C@@H]2CCO2)[C@H]3C)cc1` [Compound I-028], the response was half-maximal at 0.748 nM (EC50). Further, the Emax (maximum effect) was determined as 110%.
`C[C@H]1c2nc(OCc3ccc(F)cc3F)c(Cl)cc2CCN1Cc1nc2ccc(C(=O)O)nc2n1C[C@@H]1CCO1` [Compound I-029] registered an EC50 of 0.592 nM. For the same compound, the Emax under setting [1] amounted to 105%.
Taken in the same sequence, the figures for `C[C@H]1c2nc(OCc3ccc(Cl)cc3Cl)c(Cl)cc2CCN1Cc1nc2ccc(C(=O)O)nc2n1C[C@@H]1CCO1` [Compound I-030] were 0.37 nM and 123%.
In the same order, the values of `C[C@H]1c2nc(OCc3cc(F)c(Cl)cc3F)c(Cl)cc2CCN1Cc1nc2ccc(C(=O)O)nc2n1C[C@@H]1CCO1` [Compound I-031] are 0.314 nM and 118%.
Turning to `C[C@H]1c2nc(OCc3ccc(C#N)cc3F)c(Cl)cc2CCN1Cc1nc2ccc(C(=O)O)nc2n1C[C@@H]1CCO1` [Compound I-032], the EC50 worked out at 0.368 nM. The Emax under setting [1] was 126%.
Taken in the same sequence, the figures for `C[C@H]1c2nc(OCc3c(F)cc(Cl)cc3F)c(Cl)cc2CCN1Cc1nc2ccc(C(=O)O)nc2n1C[C@@H]1CCO1` [Compound I-033] were 0.437 nM and 111%.
`C[C@H]1c2nc(OCc3ccc(Cl)cc3F)c(Cl)cc2CCN1Cc1nc2ccc(C(=O)O)nc2n1C[C@@H]1CCO1` [Compound I-034] came in with an EC50 of 0.249 nM. In addition, the Emax under setting [1] was 103%.
Taken in the same sequence, the figures for `Cc1ccc(COc2nc3c(cc2Cl)CCN(Cc2nc4ccc(C(=O)O)c(F)c4n2C[C@@H]2CCO2)[C@H]3C)cc1` [Compound I-035] were 0.158 nM and 124%.
Taken in the same sequence, the figures for `C[C@H]1c2nc(OCc3ccccc3Cl)c(Cl)cc2CCN1Cc1nc2ccc(C(=O)O)c(F)c2n1C[C@@H]1CCO1` [Compound I-036] were 0.432 nM and 113%.
In the same order, the values of `C[C@H]1c2nc(OCc3ccc(F)cc3F)c(Cl)cc2CCN1Cc1nc2ccc(C(=O)O)c(F)c2n1C[C@@H]1CCO1` [Compound I-037] are 0.105 nM and 122%.
For `C[C@H]1c2nc(OCc3ccc(Cl)cc3Cl)c(Cl)cc2CCN1Cc1nc2ccc(C(=O)O)c(F)c2n1C[C@@H]1CCO1` [Compound I-038], the EC50 was 0.0595 nM. Also, under setting [1], the Emax turned out to be 126%.
As to `C[C@H]1c2nc(OCc3cc(F)c(Cl)cc3F)c(Cl)cc2CCN1Cc1nc2ccc(C(=O)O)c(F)c2n1C[C@@H]1CCO1` [Compound I-040], the EC50 was determined as 0.0679 nM. Further, the Emax under setting [1] was 129%.
Taken in the same sequence, the figures for `C[C@H]1c2nc(OCc3ccc(C#N)cc3F)c(Cl)cc2CCN1Cc1nc2ccc(C(=O)O)c(F)c2n1C[C@@H]1CCO1` [Compound I-041] were 0.0637 nM and 145%.
